Data published in patent US20250114311A1, “IONIZABLE CATIONIC COMPOUNDS FOR MESSENGER RNA DELIVERY” (SEQIRUS INC., priority 2021, published 2025).

Experiments:
Balb/c mice = assay: Mouse immunogenicity study, antigen-specific T cells by intracellular cytokine staining; type: in vivo; conditions: prime-boost, LNPs with saRNA expressing H5 and N1, peptide stimulation, FIG. 6
[1] = TNS fluorescence apparent pKa protocol for saRNA-LNP; type: physicochemical; conditions: saRNA-LNPs, TNS 6 μM, to 9.5, 25° C., EC50 of sigmoidal curve
Procedure: In a black 96-well plate, solutions of saRNA-LNP (final assay concentration 2 μg/mL total RNA) in a series of buffers ranging from pH 4 to 9.5 were prepared. Buffers between pH4 to 7.6 were prepared from disodium phosphate and citric acid. Buffers from 7.8 to 9.5 were prepared by titrating tris buffer with 10 N sodium hydroxide. To each well was added 6-(p-Toluidino)-2-naphthalenesulfonic acid sodium salt (TNS) in water to a final assay concentration of 6 μM. The fluorescence was read on a plate reader at 25° C. with an excitation setting of 321 nm and an emission setting of 445 nm. The intensity values were plotted as a function of pH using GraphPad Prism and were fit with a sigmoidal dose response curve. The apparent pKa was determined as the EC50 of this curve where half of the ionizable amines are expected to be protonated.

BHK-V cells = assay: In vitro potency of saRNA-LNPs (antigen-expressing cells, flow cytometry); type: cell-based; conditions: FIG. 3
Procedure: The ability of the saRNA-LNPs to transfect cultured cells was characterized using an in vitro assay based on the percentage of cells expressing the antigen of interest. Specifically, 1 million BHK-V cells were co-incubated with saRNA-LNP of varying concentration (highest 50 ng per well, lowest 0.39 ng per well) in 0.3 mL of media for 17-19 hours at 37° C. with 5% CO2. Subsequently, the cells were scraped from the dish to form a single-cell suspension, fixed and permeabilized (BD Cytofix/Perm kit), and then stained with fluorophore-labeled antigen-specific antibodies against H5 and N1 (for saRNA expressing both H5 and N1). Luciferase expression was not measured for saRNA expressing both H5 and luciferase. The percentage of single or double antigen positive cells was quantified using a BD Accuri flow cytometer. […] The slope of that line multiplied by −100,000 was reported as the LNP potency. Alternatively, a similar assay was performed in a 96-well using BHK-21 cells and analysed using a Cytation 5 Cell Imaging Multimode Reader (Agilent). The results of this assay were analysed in the same way as described for the flow cytometry assay.

CCCCCCCCCC(CCCCCCCCC(=O)OCC(CCCC)CCCCCC)OC(=O)CCCN(C)C (stereo not shown) [Compound 11]
activated antigen-specific CD8 T cells (Balb/c mice): measurable levels
pKa [1]: 6.25
LNP potency (in vitro), comparison of the two LNPs (BHK-V cells; both saRNA constructs examined): trended higher in potency
ability to transfect BHK-V cells in vitro (BHK-V cells; saRNA-LNP, 17-19 hours): able to transfect
